Experimental findings from patent US6525001B1, “Substituted pyrimidine and pyridine herbicides” (Mid-American Commercialization Corporation, priority 1997, dated 2003) are described below.

Holding throughout (assay type): in vivo
Assay [1] concerns galium 2 (Galium aparine). Description: Test D. To be noted: POSTEMERGENCE
Here is the method:
(§1) Compounds evaluated in this test were formulated in a non-phytotoxic solvent mixture which included a surfactant and applied to plants that were in the 1- to 4-leaf stage (postemergence application). A mixture of sandy loam soil and greenhouse potting mix in a 60:40 ratio was used for the postemergence test.
(§2) Plantings of these crops and weed species were adjusted to produce plants of appropriate size for the postemergence test. All plant species were grown using normal greenhouse practices. Crop and weed species include alfalfa (Medicago sativa), annual bluegrass (Poa annua), blackgrass (Alopecurus myosuroides), black nightshade (Solanum nigra), chickweed (Stellaria media), common poppy (Papaver rhoeas), deadnettle (Lamium amplexicaule), downy brome (Bromus tectorum), field violet (Viola arvensis), galium 2 (Galium aparine), green foxtail (Setaria viridis), Italian ryegrass (Lolium multiflorum), jointed goatgrass (Aegilops cylindrica), kochia (Kochia scoparia), lambsquarters (Chenopodium album), lentil (Lens culinaris), littleseed canarygrass (Phalaris minor), pea (Pisum sativum), potato (Solanum tuberosum), rape (Brassica napus), redroot pigweed (Amaranthus retroflexus), Russian thistle (Salsola kali), scentless chamomile (Matricaria inodora), sorghum (Sorghum vulgare), spring barley (Hordeum vulgare), sugar beet (Beta vulgaris), sunflower (Helianthus annuus), ivyleaf speedwell (Veronica hederaefolia), spring wheat (Triticum aestivum), winter wheat (Triticum aestivum), wild buckwheat (Polygonum convolvulus), wild mustard (Sinapis arvensis), wild oat (Avena fatua), windgrass (Apera spica-venti) and winter barley (Hordeum vulgare).
(§3) Treated plants and untreated controls were maintained in a greenhouse for approximately 21 to 28 days, after which all treated plants were compared to untreated controls and visually evaluated. Plant response ratings, summarized in Table D, are based upon a 0 to 100 scale where 0 is no effect and 100 is complete control. A dash response (−) means no test result.

Assay [2] deals with kochia (Kochia scoparia). Nature of the assay: Test D. To be noted: POSTEMERGENCE
On the procedure: as §1, §2, §3

The test system of assay [3] is redroot pigweed (Amaranthus retroflexus). Nature of the assay: Test D. The note with it: POSTEMERGENCE
Here is the method: as §1, §2, §3

The test system of assay [4] is wild buckwheat (Polygonum convolvulus). Nature of the assay: Test D. The note with it: POSTEMERGENCE
Here is the method:
as §1, §2, §3

Assay [5] concerns lambsquarters (Chenopodium album). Nature of the assay: Test D. The note with it: POSTEMERGENCE
On the procedure:
as §1, §2, §3

Assay [6] concerns jointed goatgrass (Aegilops cylindrica). Description: Test D. Also noted: key: 0 is no effect. The note with it: PREEMERGENCE
Assay [7] has as its system kochia (Kochia scoparia). Nature of the assay: Test D. Set-up: key: 0 is no effect; 100 is complete control. To be noted: PREEMERGENCE
Assay [8] deals with littleseed canarygrass (Phalaris minor). Nature of the assay: Test D. The note with it: PREEMERGENCE
Assay [9] deals with redroot pigweed (Amaranthus retroflexus). Description: Test D. Set-up: key: 0 is no effect; 100 is complete control. The note with it: PREEMERGENCE
For assay [10], the system named is spring barley (Hordeum vulgare). Description: Test D. Also noted: key: 0 is no effect. To be noted: PREEMERGENCE
Assay [11] concerns winter wheat (Triticum aestivum). Description: Test D. Set-up: key: 0 is no effect. To be noted: PREEMERGENCE
For assay [12], the system named is goosegrass (Eleusine indica). Description: Test E pre-/postemergence/post directed. Set-up: key: 0 is no effect; 100 is complete control. Summed up: (§4)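 Greenhouse pot-grown plants; compound in non-phytotoxic solvent with surfactant applied preemergence to soil within one day of planting, postemergence at two to four leaf stage (three to twenty cm), or post-directed to plant base and soil. Visual injury rated 13 to 21 days after application, 0 (none) to 100 (complete control).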

Assay [13] has as its system surinam grass (Brachiaria decumbens). Nature of the assay: Test E pre-/postemergence/post directed. Also noted: key: 0 is no effect; 100 is complete control. The note with it: PREEMERGENCE
Summed up:
as §4

Regarding `CCc1cnc(-c2ccc(C(F)(F)F)cc2)nc1Cc1cccc(C(F)(F)F)c1` [Compound 22], the “Plant response rating, Galium” value turned out to be 70 in assay [1] (Rate 62 g/ha) and 90 in assay [1] (Rate 125 g/ha). Further, the “Plant response rating, Kochia” value in assay [2] (Rate 62 g/ha) is 50; in assay [2] (Rate 125 g/ha), 70; in assay [7] (Rate 62 g/ha) it was 10; in assay [7] (Rate 125 g/ha), 65; in assay [7] (Rate 250 g/ha) it was 60. The “Plant response rating, Redroot pigweed” value in assay [3] (Rate 62 g/ha) is given as 50; in [3] (Rate 125 g/ha), 70; in assay [9] (Rate 62 g/ha), 60; in assay [9] (Rate 125 g/ha), 100; in assay [9] (Rate 250 g/ha) it was 70. Further, the “Plant response rating, Wild buckwheat” value in [4] (Rate 62 g/ha) and in assay [4] (Rate 125 g/ha) was 20 throughout. The “Plant response rating, Lambsquarters” value in assay [5] (Rate 62 g/ha) and in [5] (Rate 125 g/ha) was 60 in each case. Also, the results for the “Plant response rating, Jointed goatgra” value in assay [6] (Rate 62 g/ha), in assay [6] (Rate 125 g/ha) and in assay [6] (Rate 250 g/ha) were 0, 20 and 10, respectively. In addition, the “Plant response rating, LS canarygrass” value in [8] (Rate 62 g/ha) was 20; in assay [8] (Rate 125 g/ha) it was 60; in assay [8] (Rate 250 g/ha) it was 50. The “Plant response rating, Spring Barley” value in assay [10] (Rate 62 g/ha) amounted to 0; in assay [10] (Rate 125 g/ha), 10; in [10] (Rate 250 g/ha), 2. In addition, the “Plant response rating, Wheat (winter)” value in [11] (Rate 62 g/ha) is 0; in assay [11] (Rate 125 g/ha), 10; in assay [11] (Rate 250 g/ha) it was 5.

As to `Cc1cnc(-n2ccc(C(F)(F)F)n2)nc1Cc1cccc(OC(F)(F)F)c1` [Compound 42], the “Plant response rating, Goosegrass” value in [12] (PREEMERGENCE, Rate 32 g/ha) amounted to 98; in [12] (PREEMERGENCE, Rate 64 g/ha), 100; in assay [12] (PREEMERGENCE, Rate 125 g/ha), 100; in assay [12] (PREEMERGENCE, Rate 250 g/ha), 100. Further, the “Plant response rating, Surinam grass” value in [13] (Rate 125 g/ha) and in [13] (Rate 250 g/ha) was 100 throughout.

On to `Cc1cnc(-n2cnc(C(F)(F)F)n2)nc1Cn1ccc(C(F)(F)F)n1` [Compound 51], for which the entries for the “Plant response rating, Jointed goatgra” value in assay [6] (Rate 31 g/ha) and in assay [6] (Rate 62 g/ha) were 60 and 90, respectively. Moreover, the “Plant response rating, Kochia” value in assay [7] (Rate 31 g/ha) is 85; in [7] (Rate 62 g/ha), 80. Further, the entries for the “Plant response rating, LS canarygrass” value in assay [8] (Rate 31 g/ha) and in [8] (Rate 62 g/ha) were 80 and 90, respectively. The “Plant response rating, Redroot pigweed” value in assay [9] (Rate 31 g/ha) and in [9] (Rate 62 g/ha) was 70 throughout. The “Plant response rating, Spring Barley” value is reported as 70 in assay [10] (Rate 31 g/ha) and 80 in [10] (Rate 62 g/ha). The “Plant response rating, Wheat (winter)” value came out at 30 in [11] (Rate 31 g/ha) and 55 in assay [11] (Rate 62 g/ha).

For `Cc1cnc(-n2ccc(C(F)(F)F)n2)nc1Cn1ccc(C(F)(F)F)n1` [Compound 52], the “Plant response rating, Galium” value in assay [1] (Rate 16 g/ha) is 40; in [1] (Rate 31 g/ha), 50; in [1] (Rate 62 g/ha) it was 65; in assay [1] (Rate 125 g/ha), 60. Also, the “Plant response rating, Kochia” value in [2] (Rate 16 g/ha) amounted to 70; in assay [2] (Rate 31 g/ha), 70; in [2] (Rate 62 g/ha), 70; in assay [2] (Rate 125 g/ha), 70; in assay [7] (Rate 31 g/ha), 50; in assay [7] (Rate 62 g/ha) it was 80. Moreover, the “Plant response rating, Kochia” value in assay [7] (Rate 125 g/ha) was 100. For the same compound, the “Plant response rating, Redroot pigweed” value came to 45 in assay [3] (Rate 16 g/ha); 60 in assay [3] (Rate 31 g/ha); 60 in assay [3] (Rate 62 g/ha); 70 in assay [3] (Rate 125 g/ha); 90 in [9] (Rate 31 g/ha); 90 in assay [9] (Rate 62 g/ha). The “Plant response rating, Redroot pigweed” value in assay [9] (Rate 125 g/ha) is 100. Besides, the “Plant response rating, Wild buckwheat” value in assay [4] (Rate 16 g/ha) turned out to be 60; in [4] (Rate 31 g/ha), 50; in [4] (Rate 62 g/ha), 70; in assay [4] (Rate 125 g/ha) it was 80. Also, the “Plant response rating, Lambsquarters” value in [5] (Rate 16 g/ha) came to 70; in assay [5] (Rate 31 g/ha) it was 80; in assay [5] (Rate 62 g/ha), 80; in [5] (Rate 125 g/ha), 80. The “Plant response rating, Goosegrass” value in [12] (POSTEMERGENCE, Rate 125 g/ha) amounted to 5; in assay [12] (POSTEMERGENCE, Rate 250 g/ha), 75; in [12] (PREEMERGENCE, Rate 32 g/ha) it was 20; in assay [12] (PREEMERGENCE, Rate 64 g/ha), 100; in assay [12] (PREEMERGENCE, Rate 125 g/ha), 100. Moreover, the “Plant response rating, Jointed goatgra” value is 30 in assay [6] (Rate 31 g/ha), 40 in assay [6] (Rate 62 g/ha) and 40 in assay [6] (Rate 125 g/ha). The “Plant response rating, LS canarygrass” value in [8] (Rate 31 g/ha) was 30; in assay [8] (Rate 62 g/ha), 60; in assay [8] (Rate 125 g/ha), 90. Besides, the “Plant response rating, Spring Barley” value in [10] (Rate 31 g/ha) amounted to 50; in [10] (Rate 62 g/ha), 60; in assay [10] (Rate 125 g/ha) it was 80. In addition, the “Plant response rating, Wheat (winter)” value in assay [11] (Rate 31 g/ha) is on record as 50; in assay [11] (Rate 62 g/ha), 60; in assay [11] (Rate 125 g/ha), 60.

As to `Cc1cnc(-c2ccc(C(F)(F)F)cc2)nc1Cn1ccc(C(F)(F)F)n1` [compound 9], the “Plant response rating, Goosegrass” value turned out to be 5 in assay [12] (POSTEMERGENCE, Rate 125 g/ha); 10 in assay [12] (POSTEMERGENCE, Rate 250 g/ha); 90 in assay [12] (PREEMERGENCE, Rate 32 g/ha); 100 in [12] (PREEMERGENCE, Rate 64 g/ha); 100 in assay [12] (PREEMERGENCE, Rate 125 g/ha); 100 in [12] (PREEMERGENCE, Rate 250 g/ha). The “Plant response rating, Surinam grass” value in assay [13] (Rate 250 g/ha) was 100.
